# Measurements taken from patent US11040949B2, “Compounds affecting pigment production and methods for treatment of bacterial diseases” (Versitech Limited, priority 2017, dated 2021).
# How the values were obtained:
# Type in all cases: cell-based
# [1] = tested on: S. aureus FPR3757; experiment: IM032 staphyloxanthin production inhibition; conditions: Staphylococcus aureus
# Procedure: (§1) This study aimed to evaluate IM032 for its in vitro efficacy to inhibit the production of staphyloxanthin in different strains of S. aureus.
# (§2) The negative control was dimethyl sulfoxide (DMSO) which was used to prepare stock solutions and dilutions; positive control in this test was S. aureus strain FPR3757 treated with IM032.
# (§3) The test item was dissolved at 44.9 mg/mL in DMSO at 37° C., aliquoted into several tubes, and stored at −20° C. until use. On the day of testing, a stock solution was serially diluted to testing concentrations with DMSO. All solutions were vortexed and mixed with a pipette to achieve homogeneity immediately before dilution. A correction factor for purity was not applied to the test item preparations.
# (§4) Each test item solution (6 μL) was combined with 0.6 mL of S. aureus culture in brain heart infusion broth (CFU per well=1×10^7). 12-wells repeats were performed for each concentration in 96-well 2-mL plates. The plates were then incubated in a shaker at 37° C., 250 rpm for 24 hours. The bacteria were centrifuged at 4,000 rpm for 10 min. Next, the bacteria from 4-wells were combined and were washed twice with PBS. Staphyloxanthin was extracted with 300 μL of methanol in a water bath at 60° C. for 1 hour. After centrifugation, 100 μL of supernatant was transferred to a 96-well cell culture plate and OD450 was measured. The relative pigment production at each tested concentration was calculated as follows: […]
# (§5) The IC50 for each test was determined based on the calculated inhibition ratio from above with Prism 6.0 by employing a non-linear regression (four parameters) fitting method with assigned bottom and top at 0.05 and 0.95 respectively. The IC50 presented is the best-fit value.
# (§6) S. aureus strains (ATCC29213, HG003, Mu3, SH1000, and COL) were treated with IM032 at final concentrations of 4,000, 1,000, 250, 63, 16, 4 and 1 nM (FIG. 7A). S. aureus strains (JE2, USA300-3, LAC, ST239III and Newman) were treated with IM032 at final concentrations of 250, 63, 16, 4, 1, 0.2 and 0.06 nM (FIG. 7B). […] The determined IC50 values of the tested strains range from 1.2 to 70 nM (Tables 6 and 7).
# [2] = tested on: S. aureus ST239III; experiment: IM032 staphyloxanthin production inhibition; conditions: Staphylococcus aureus, MRSA
# Procedure: as §1, §2, §3, §4, §5, §6
# [3] = tested on: S. aureus COL; experiment: IM032 staphyloxanthin production inhibition; conditions: Staphylococcus aureus, MRSA
# Procedure: as §1, §2, §3, §4, §5, §6
# [4] = tested on: S. aureus Newman; experiment: IM032 staphyloxanthin production inhibition; conditions: Staphylococcus aureus, MSSA / NEWMAN
# Procedure: as §1, §2, §3, §4, §5, §6
# [5] = tested on: S. aureus JE2; experiment: IM032 staphyloxanthin production inhibition; conditions: Staphylococcus aureus
# Procedure: as §1, §2, §3, §4, §5, §6
# [6] = tested on: S. aureus LAC; experiment: IM032 staphyloxanthin production inhibition; conditions: Staphylococcus aureus
# Procedure: as §1, §2, §3, §4, §5, §6
# [7] = tested on: S. aureus Mu3; experiment: IM032 staphyloxanthin production inhibition; conditions: Staphylococcus aureus
# Procedure: as §1, §2, §3, §4, §5, §6
# [8] = tested on: S. aureus ATCC29213; experiment: IM032 staphyloxanthin production inhibition; conditions: Staphylococcus aureus, ATCC 29213 / MSSA
# Procedure: as §1, §2, §3, §4, §5, §6
# [9] = tested on: S. aureus HG003; experiment: IM032 staphyloxanthin production inhibition; conditions: Staphylococcus aureus, MSSA
# Procedure: as §1, §2, §3, §4, §5, §6
# [10] = tested on: S. aureus USA300-3; experiment: IM032 staphyloxanthin production inhibition; conditions: Staphylococcus aureus
# Procedure: as §1, §2, §3, §4, §5, §6
# [11] = tested on: S. aureus SH1000; experiment: IM032 staphyloxanthin production inhibition; conditions: Staphylococcus aureus, MSSA
# Procedure: as §1, §2, §3, §4, §5, §6
# [12] = tested on: 10 different Staphylococcus aureus (S. aureus) strains; experiment: IM032 staphyloxanthin production inhibition, all tested strains
# Procedure: as §1
# Compound IM032 was evaluated for its in vitro efficacy to inhibit staphyloxanthin production in 10 different Staphylococcus aureus (S. aureus) strains, SH1000, HG003, ATCC29213, ATCC700698, COL, JE2, LAC, USA300-3, Newman and ST239III.
# as §2
# The test item was dissolved at 44.9 mg/mL in DMSO at 37° C., aliquoted into several tubes, and stored at −20° C. until use. On the day of testing, a stock solution was serially diluted to testing concentrations with DMSO. […]
# Each test item solution (6 μL) was combined with 0.6 mL of S. aureus culture in brain heart infusion broth (CFU per well=1×10^7). […] After centrifugation, 100 μL of supernatant was transferred to a 96-well cell culture plate and OD450 was measured. The relative pigment production at each tested concentration was calculated as follows: […]
# The IC50 for each test was determined based on the calculated inhibition ratio from above with Prism 6.0 by employing a non-linear regression (four parameters) fitting method with assigned bottom and top at 0.05 and 0.95 respectively. […]
compound,measurement,setting,value
"O=C(/C=C/c1ccccc1Br)Nc1ccc(S(=O)(=O)N2CCCCC2)cc1 [NP16-XL-016, 3-(6-bromophenyl)-N-[4-(1-piperidine-1-sulfonyl)phenyl]-acrylamide]",IC50,"[1]; FPR3757, FPR3757, previous study",17 nM
same,IC50,"[1]; MRSA / USA300, Table 8, USA300 (FPR-3757), CA-MRSA",30.8 ± 5 nM
same,IC50,"[1]; MRSA, Table 6, first experiment, FPR3757, MRSA (CA), positive control",20 nM
same,IC50,"[1]; MRSA, Table 7, second experiment, FPR3757, MRSA (CA), positive control",28 nM
same,IC50,"[2]; Table 7, ST239III, MRSA (HA)",19 nM
same,IC50,"[2]; Table 8, Clinical isolate ST239III, HA-MRSA",16.3 ± 8 nM
same,IC50,"[3]; Table 6, MRSA (HA)",1.2 nM
same,IC50,"[3]; Table 8, HA-MRSA",0.9 ± 1 nM
same,IC50,[4]; Table 7,21 nM
same,IC50,[4]; Table 8,23.7 ± 1 nM
same,IC50,[5]; / USA300,37.7 ± 4 nM
same,IC50,[5]; MRSA,26 nM
same,IC50,[6]; MRSA,27 nM
same,IC50,[6]; MRSA / USA300,43.6 ± 5 nM
same,IC50,[7]; MU3,1.8 nM
same,IC50,[7]; VISA,2.6 ± 1 nM
same,IC50,[8]; Table 6,18 nM
same,IC50,[8]; Table 8,30 ± 5 nM
same,IC50,[9]; Table 6,46 nM
same,IC50,[9]; Table 8,54.4 ± 4 nM
same,IC50,"[10]; MRSA / USA300, Table 7, USA300-3, MRSA (HA)",27 nM
same,IC50,"[10]; MRSA / USA300, Table 8, USA300-3, HA-MRSA",42.8 ± 6 nM
same,IC50,[11]; Table 6,70 nM
same,IC50,[11]; Table 8,70.5 ± 6 nM
same,IC50,"[12]; Staphylococcus aureus, all 10 tested strains, read-out: IC50 of staphyloxanthin production inhibition, range over tested strains",1.2 to 70 nM
same,bactericidal effect (reduction in optical density),"[12]; any concentration of IM032, up to 4,000 nM",A clear bactericidal effect as evidenced by a reduction in optical density was not observed
